Results reported in ChEMBL document CHEMBL1201862, “PubChem BioAssay data set” (2004).
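Dose response: 5 concentrations. Exposure: 48 h. Format: 96-well plates. Endpoint: linear interpolation; highest concentration if not reached. Abbreviation: GI50, concentration required for 50% inhibition of growth.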 The source made the active and inactive calls. Cut-off read from the data, not from the text of the source: active = GI50 up to about 1.1 µM and inactive = higher.

How the values were obtained:
Experiment in all cases: growth of human tumour cells (NCI), 48 h
HOP-62 = system: HOP-62
SN12C = system: SN12C
NCI-H522 = system: NCI-H522
TK-10 = system: TK-10
SW-620 = system: SW-620
MDA-MB-231 = system: MDA-MB-231
OVCAR-5 = system: OVCAR-5
NCI/ADR-RES = system: NCI/ADR-RES
MDA-MB-435 = system: MDA-MB-435
SK-MEL-5 = system: SK-MEL-5
OVCAR-8 = system: OVCAR-8
DU-145 = system: DU-145
MOLT-4 = system: MOLT-4
OVCAR-3 = system: OVCAR-3
HOP-92 = system: HOP-92
NCI-H23 = system: NCI-H23
SK-OV-3 = system: SK-OV-3
UACC-62 = system: UACC-62
RXF 393 = system: RXF 393

SMILES | GI50 (HOP-62) | GI50 (SN12C) | GI50 (NCI-H522) | GI50 (TK-10) | GI50 (SW-620) | GI50 (MDA-MB-231) | GI50 (OVCAR-5) | GI50 (NCI/ADR-RES) | GI50 (MDA-MB-435) | GI50 (SK-MEL-5) | GI50 (OVCAR-8) | GI50 (DU-145) | GI50 (MOLT-4) | GI50 (OVCAR-3) | GI50 (HOP-92) | GI50 (NCI-H23) | GI50 (SK-OV-3) | GI50 (UACC-62) | GI50 (RXF 393)
COc1ccc2c(c1)CCc1c-2[nH]c2ccc(OC)cc12 | > 100 µM (inactive) | > 100 µM (inactive) | > 100 µM (inactive) | > 100 µM (inactive) | > 100 µM (inactive) | > 100 µM (inactive) | > 100 µM (inactive) | > 100 µM (inactive) | > 100 µM (inactive) | > 100 µM (inactive) | > 100 µM (inactive) | > 100 µM (inactive) | > 100 µM (inactive) | > 100 µM (inactive) | > 100 µM (inactive) | > 100 µM (inactive) | > 100 µM (inactive) | > 100 µM (inactive) | –
CC/C(=N\NC(=O)c1cccnc1)c1ccc2c(c1)OCCO2 | > 100 µM (inactive) | > 100 µM (inactive) | 29.1 µM (inactive) | > 100 µM (inactive) | > 100 µM (inactive) | 74.8 µM (inactive) | > 100 µM (inactive) | > 100 µM (inactive) | 34.5 µM (inactive) | 33.7 µM (inactive) | > 100 µM (inactive) | > 100 µM (inactive) | > 100 µM (inactive) | > 100 µM (inactive) | – | > 100 µM (inactive) | > 100 µM (inactive) | 87.9 µM (inactive) | > 100 µM (inactive)
N#Cc1cc(N(CCCl)CCCl)c([N+](=O)[O-])cc1[N+](=O)[O-] | > 100 µM (inactive) | 48 µM (inactive) | 87.9 µM (inactive) | > 100 µM (inactive) | > 100 µM (inactive) | > 100 µM (inactive) | > 100 µM (inactive) | > 100 µM (inactive) | > 100 µM (inactive) | > 100 µM (inactive) | > 100 µM (inactive) | 32.4 µM (inactive) | 24 µM (inactive) | > 100 µM (inactive) | > 100 µM (inactive) | > 100 µM (inactive) | > 100 µM (inactive) | > 100 µM (inactive) | –
CN1CN(c2ccccc2)C2(CCN(Cc3nc4ccccc4s3)CC2)C1=O | 16.6 µM (inactive) | 17.5 µM (inactive) | – | 16.3 µM (inactive) | – | 14.1 µM (inactive) | 17.7 µM (inactive) | 15.5 µM (inactive) | 17.8 µM (inactive) | 16.1 µM (inactive) | 14.4 µM (inactive) | 17.9 µM (inactive) | 15.1 µM (inactive) | 15.7 µM (inactive) | 15 µM (inactive) | 18.1 µM (inactive) | 22.2 µM (inactive) | 16 µM (inactive) | 14.6 µM (inactive)
CCN(CC)C(=O)N[C@@H](CC(C)C)C(=O)NC | > 100 µM (inactive) | > 100 µM (inactive) | > 100 µM (inactive) | – | > 100 µM (inactive) | > 100 µM (inactive) | > 100 µM (inactive) | > 100 µM (inactive) | > 100 µM (inactive) | > 100 µM (inactive) | > 100 µM (inactive) | > 100 µM (inactive) | > 100 µM (inactive) | > 100 µM (inactive) | – | > 100 µM (inactive) | > 100 µM (inactive) | > 100 µM (inactive) | > 100 µM (inactive)
Cc1cc(S(=O)(=O)Nc2nc(N)n[nH]2)c(S)cc1Cl | > 10 µM (inactive) | > 10 µM (inactive) | > 10 µM (inactive) | > 10 µM (inactive) | > 10 µM (inactive) | > 10 µM (inactive) | > 10 µM (inactive) | > 10 µM (inactive) | > 10 µM (inactive) | > 10 µM (inactive) | > 10 µM (inactive) | > 10 µM (inactive) | > 10 µM (inactive) | > 10 µM (inactive) | – | > 10 µM (inactive) | > 10 µM (inactive) | > 10 µM (inactive) | > 10 µM (inactive)
CCOC1NC(/N=C/c2ccc(OC)cc2)=C(C#N)C1C#N (configuration not stated) | > 100 µM (inactive) | > 100 µM (inactive) | 19.3 µM (inactive) | > 100 µM (inactive) | 50.9 µM (inactive) | 64.6 µM (inactive) | 87.5 µM (inactive) | > 100 µM (inactive) | 40.6 µM (inactive) | 38.6 µM (inactive) | > 100 µM (inactive) | > 100 µM (inactive) | 92 µM (inactive) | > 100 µM (inactive) | – | 46 µM (inactive) | 80.4 µM (inactive) | 32.9 µM (inactive) | 34.5 µM (inactive)
C/C(=N\O)C1CC2C=C(C#N)C1N(Cc1ccccc1)C2 (configuration not stated) | > 100 µM (inactive) | > 100 µM (inactive) | – | > 100 µM (inactive) | > 100 µM (inactive) | > 100 µM (inactive) | > 100 µM (inactive) | > 100 µM (inactive) | > 100 µM (inactive) | > 100 µM (inactive) | 45.3 µM (inactive) | > 100 µM (inactive) | > 100 µM (inactive) | > 100 µM (inactive) | > 100 µM (inactive) | > 100 µM (inactive) | > 100 µM (inactive) | > 100 µM (inactive) | > 100 µM (inactive)
CCOC(=O)c1nc2ccc(C(F)(F)F)cc2nc1Oc1ccc(C(=O)OC)cc1 | 22.5 µM (inactive) | – | – | 45.8 µM (inactive) | > 100 µM (inactive) | 80.7 µM (inactive) | – | > 100 µM (inactive) | 71.1 µM (inactive) | 43.1 µM (inactive) | > 100 µM (inactive) | 55.7 µM (inactive) | > 100 µM (inactive) | – | 43.2 µM (inactive) | 97.5 µM (inactive) | > 100 µM (inactive) | 59.4 µM (inactive) | 64.6 µM (inactive)
O=C(NN=C(c1ccccc1)c1ccccc1)/C(O)=C/C(=O)c1ccc(Cl)cc1 | 45.2 µM (inactive) | 27.9 µM (inactive) | 13.5 µM (inactive) | 48.5 µM (inactive) | – | 11.9 µM (inactive) | > 100 µM (inactive) | 20.7 µM (inactive) | 69.3 µM (inactive) | 29.1 µM (inactive) | 30.1 µM (inactive) | 73.1 µM (inactive) | 35 µM (inactive) | 30.8 µM (inactive) | – | 23.2 µM (inactive) | 73.3 µM (inactive) | 39.1 µM (inactive) | 35.2 µM (inactive)
Cn1c2c(c3c(=O)[nH]ncc31)CCCc1ccccc1-2 | 18.9 µM (inactive) | 25.6 µM (inactive) | 18.2 µM (inactive) | 28.7 µM (inactive) | 34.3 µM (inactive) | 27.5 µM (inactive) | 45.2 µM (inactive) | 36.7 µM (inactive) | 20.9 µM (inactive) | 16.1 µM (inactive) | 24.9 µM (inactive) | 37.9 µM (inactive) | 0.0891 µM (active) | 26.8 µM (inactive) | 12.9 µM (inactive) | 37.7 µM (inactive) | 25.7 µM (inactive) | 28.7 µM (inactive) | –
CN1C(=O)C(O)CC1c1ccccc1F (configuration not stated) | > 100 µM (inactive) | > 100 µM (inactive) | > 100 µM (inactive) | – | > 100 µM (inactive) | > 100 µM (inactive) | > 100 µM (inactive) | > 100 µM (inactive) | > 100 µM (inactive) | > 100 µM (inactive) | > 100 µM (inactive) | > 100 µM (inactive) | > 100 µM (inactive) | > 100 µM (inactive) | > 100 µM (inactive) | > 100 µM (inactive) | – | > 100 µM (inactive) | > 100 µM (inactive)
S=c1[nH]nc(Cn2c3ccc(Br)cc3c3nc4ccccc4nc32)n1C1CCCCC1 | 18.6 µM (inactive) | 25 µM (inactive) | 21.3 µM (inactive) | > 47.8 µM (inactive) | 25.3 µM (inactive) | 36.5 µM (inactive) | 32.5 µM (inactive) | 27 µM (inactive) | 20.3 µM (inactive) | 6.87 µM (inactive) | 22.6 µM (inactive) | 27.8 µM (inactive) | – | 18.5 µM (inactive) | – | 13.8 µM (inactive) | 26.5 µM (inactive) | 16.1 µM (inactive) | 18.5 µM (inactive)
Cc1ccc(C(=O)OCC(C)C)cc1/N=N/N(C)C | 67.8 µM (inactive) | > 65 µM (inactive) | 35.2 µM (inactive) | > 100 µM (inactive) | > 100 µM (inactive) | > 100 µM (inactive) | > 100 µM (inactive) | 97.1 µM (inactive) | 95.9 µM (inactive) | > 60.4 µM (inactive) | > 100 µM (inactive) | > 100 µM (inactive) | 59.7 µM (inactive) | 28.6 µM (inactive) | > 65 µM (inactive) | 34.8 µM (inactive) | > 100 µM (inactive) | > 100 µM (inactive) | –
CC(C)(C)C(=O)C(C(c1ccccc1)N1CCOCC1)N1CCOCC1 (configuration not stated) | > 100 µM (inactive) | > 100 µM (inactive) | > 100 µM (inactive) | > 100 µM (inactive) | > 100 µM (inactive) | > 100 µM (inactive) | > 100 µM (inactive) | > 100 µM (inactive) | > 100 µM (inactive) | – | > 100 µM (inactive) | > 100 µM (inactive) | > 100 µM (inactive) | > 100 µM (inactive) | > 100 µM (inactive) | > 100 µM (inactive) | – | > 100 µM (inactive) | > 100 µM (inactive)
COc1ccc(C2C3=C(N=C4SC(C(C)=O)=C(C)N42)c2ccccc2CC3)cc1 (configuration not stated) | > 100 µM (inactive) | > 100 µM (inactive) | – | – | > 100 µM (inactive) | > 100 µM (inactive) | > 100 µM (inactive) | > 10 µM (inactive) | > 100 µM (inactive) | 50.5 µM (inactive) | > 100 µM (inactive) | > 100 µM (inactive) | – | > 100 µM (inactive) | > 100 µM (inactive) | 80 µM (inactive) | > 100 µM (inactive) | 45.7 µM (inactive) | 23.7 µM (inactive)
